# Key:
# Vitamin D3 receptor = target: T1, Vitamin D3 receptor (Homo sapiens, UniProt P11473); assay: Binding affinity to vitamin D3 receptor (unknown origin) after 4 hrs using fluormone VDR red by polar screen VDR competitor assay
# T1 sequence (P11473 whole entry): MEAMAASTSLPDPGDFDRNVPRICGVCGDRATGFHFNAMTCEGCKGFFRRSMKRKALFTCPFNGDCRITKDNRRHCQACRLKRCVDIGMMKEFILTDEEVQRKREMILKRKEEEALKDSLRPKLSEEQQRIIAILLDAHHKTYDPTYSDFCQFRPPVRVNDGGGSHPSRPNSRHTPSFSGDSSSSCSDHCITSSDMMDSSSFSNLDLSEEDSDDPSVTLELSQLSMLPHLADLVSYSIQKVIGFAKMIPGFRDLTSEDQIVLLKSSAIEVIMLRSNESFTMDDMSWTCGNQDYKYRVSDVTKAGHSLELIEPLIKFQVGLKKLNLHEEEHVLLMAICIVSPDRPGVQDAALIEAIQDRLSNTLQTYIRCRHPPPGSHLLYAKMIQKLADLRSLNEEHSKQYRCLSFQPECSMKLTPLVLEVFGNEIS
# [1] = Antipoliferative activity against human PC3 cells after 48 hrs by MTT assay; format: functional, cell-based; settings: PC-3, 48 h
# MCF7 = assay: Antipoliferative activity against human MCF7 cells after 48 hrs by MTT assay; format: functional, cell-based; settings: MCF7, 48 h
# [2] = Antipoliferative activity against human Caco2 cells after 48 hrs by MTT assay; format: functional, cell-based; settings: Caco-2, 48 h
# HepG2 = assay: Antipoliferative activity against human HepG2 cells after 48 hrs by MTT assay; format: functional, cell-based; settings: HepG2, 48 h
# [3] = Cytotoxicity against human L02 cells after 48 hrs by MTT assay; format: cell-based; settings: L02, 48 h
# Rattus norvegicus [4] = assay: Toxicity in rat assessed as hypercalcemic activity at 10 mg/kg/day administered for 7 days; format: organism-based; settings: in vivo, 168 h
# Rattus norvegicus [5] = assay: Toxicity in rat assessed as hypercalcemic activity at 30 mg/kg/day administered for 7 days; format: organism-based; settings: in vivo, 168 h
# Rattus norvegicus [6] = assay: Toxicity in rat assessed as hypercalcemic activity at 0.5 mg/kg/day administered for 7 days; format: organism-based; settings: in vivo, 168 h
# Rattus norvegicus [7] = assay: Toxicity in rat assessed as serum calcium level at 0.5 ug/kg/day administered for 7 days (reference value: 7.25 mg/dl); format: organism-based; settings: in vivo, 0.0005 mg/kg, 168 h
SMILES,IC50 (Vitamin D3 receptor) [nM],IC50 [1] [nM],IC50 (MCF7) [nM],IC50 [2] [nM],IC50 (HepG2) [nM],IC50 [3] [nM],Activity (Rattus norvegicus [4]),Activity (Rattus norvegicus [5]),Activity (Rattus norvegicus [6]),Activity (Rattus norvegicus [7]) [mg/dL]
CC[C@@H](C)[C@H](NC(=O)c1ccc(C(CC)(CC)c2ccc(OCC(O)C(C)(C)C)c(C)c2)n1CC)C(=O)O (some centres not stated),389,1900,2000,3400,127,1400,–,–,–,–
CCN(CC)CCNC(=O)c1ccc(C(CC)(CC)c2ccc(OCC(=O)C(C)(C)C)c(C)c2)n1CC,–,30,690,1600,620,2500,–,–,–,–
C#CCNC(=O)c1ccc(C(CC)(CC)c2ccc(OCC(O)C(C)(C)C)c(C)c2)n1CC (configuration not stated),> 10000,16200,> 50000,39100,> 50000,4400,–,–,–,–
CCn1c(C(=O)NCCN(C)C)ccc1C(CC)(CC)c1ccc(OCC(O)C(C)(C)C)c(C)c1 (configuration not stated),–,1630,660,1300,870,2600,–,–,–,–
CCN(CC)CCCNC(=O)c1ccc(C(CC)(CC)c2ccc(OCC(=O)C(C)(C)C)c(C)c2)n1CC,863,1800,530,1000,180,2300,–,–,–,–
CCn1c(C(=O)N(C)CC(=O)O)ccc1C(CC)(CC)c1ccc(OCC(=O)C(C)(C)C)c(C)c1,–,18400,28600,35900,25200,8700,–,–,–,–
CCOC(=O)CN(C)C(=O)c1ccc(C(CC)(CC)c2ccc(OCC(O)C(C)(C)C)c(C)c2)n1CC (configuration not stated),–,25500,9200,12200,> 50000,10100,–,–,–,–
CCn1c(C(=O)NCCCN2CCOCC2)ccc1C(CC)(CC)c1ccc(OCC(O)C(C)(C)C)c(C)c1 (configuration not stated),1190,7.9,2070,5900,1290,810,Non-toxic,Non-toxic,Non-toxic,–
CCN(CC)CCNC(=O)c1ccc(C(CC)(CC)c2ccc(OCC(O)C(C)(C)C)c(C)c2)n1CC (configuration not stated),–,220,690,2310,490,2500,–,–,–,–
CCn1c(C(=O)NCCN)ccc1C(CC)(CC)c1ccc(OCC(=O)C(C)(C)C)c(C)c1,1010,480,75,1900,180,2500,–,–,–,–
C=CCN(C)C(=O)c1ccc(C(CC)(CC)c2ccc(OCC(O)C(C)(C)C)c(C)c2)n1CC (configuration not stated),–,25900,> 50000,> 50000,> 50000,6300,–,–,–,–
CCn1c(C(=O)NCCCN2CCOCC2)ccc1C(CC)(CC)c1ccc(OCC(=O)C(C)(C)C)c(C)c1,3520,11,5200,3600,1600,310,–,–,–,–
CC[C@@H](C)[C@H](NC(=O)c1ccc(C(CC)(CC)c2ccc(OCC(=O)C(C)(C)C)c(C)c2)n1CC)C(=O)O,564,1600,160,4500,247,1500,–,–,–,–
CCOc1ccc(NC(=O)c2ccc(C(CC)(CC)c3ccc(OCC(O)C(C)(C)C)c(C)c3)n2CC)cc1 (configuration not stated),9250,–,–,–,–,–,–,–,–,–
CCn1c(C(=O)NCCCN(C)C)ccc1C(CC)(CC)c1ccc(OCC(=O)C(C)(C)C)c(C)c1,–,1600,340,1400,960,670,–,–,–,–
CCn1c(C(=O)NCC(OC)OC)ccc1C(CC)(CC)c1ccc(OCC(O)C(C)(C)C)c(C)c1 (configuration not stated),5230,14600,> 50000,> 50000,23200,22200,–,–,–,–
CCn1c(C(=O)N(CCC#N)CCC#N)ccc1C(CC)(CC)c1ccc(OCC(O)C(C)(C)C)c(C)c1 (configuration not stated),> 10000,7800,480,7100,42000,1700,–,–,–,–
CCC(CC)(c1ccc(OCC(=O)C(C)(C)C)c(C)c1)c1ccc(OCC(=O)C(C)(C)C)c(C)c1,–,> 50000,7800,16900,> 50000,5100,–,Non-toxic,–,–
C=C1/C(=C\C=C2/CCC[C@]3(C)[C@@H]([C@H](C)CCCC(C)(C)O)CC[C@@H]23)C[C@@H](O)C[C@@H]1O [CALCITRIOL],–,–,–,–,–,–,–,–,–,13.11
CCN(CC)CCCNC(=O)c1ccc(C(CC)(CC)c2ccc(OCC(O)C(C)(C)C)c(C)c2)n1CC (configuration not stated),71.1,2500,190,1800,1100,2500,–,–,–,–
CCn1c(C(=O)NCCN)ccc1C(CC)(CC)c1ccc(OCC(O)C(C)(C)C)c(C)c1 (configuration not stated),194,940,5.9,1000,176,2400,Non-toxic,Non-toxic,Non-toxic,–
CCn1c(C(=O)N(C)CC(=O)O)ccc1C(CC)(CC)c1ccc(OCC(O)C(C)(C)C)c(C)c1 (configuration not stated),–,23900,25400,31900,17000,32600,–,–,–,–
C#CC(C)OC(=O)c1ccc(C(CC)(CC)c2ccc(OCC(O)C(C)(C)C)c(C)c2)n1CC (configuration not stated),–,38200,> 50000,> 50000,> 50000,23700,–,–,–,–
CCn1c(C(=O)N(C)CCC#N)ccc1C(CC)(CC)c1ccc(OCC(O)C(C)(C)C)c(C)c1 (configuration not stated),–,1700,> 50000,> 50000,> 50000,14900,–,–,–,–
CCn1c(C(=O)NCCCN(C)C)ccc1C(CC)(CC)c1ccc(OCC(O)C(C)(C)C)c(C)c1 (configuration not stated),197,3100,490,1900,360,470,–,–,–,–
CCn1c(C(=O)OCc2ccc(F)cc2)ccc1C(CC)(CC)c1ccc(OCC(O)C(C)(C)C)c(C)c1 (configuration not stated),–,> 50000,> 50000,> 50000,> 50000,14900,–,–,–,–
CCn1c(C(=O)NCCN(C)C)ccc1C(CC)(CC)c1ccc(OCC(=O)C(C)(C)C)c(C)c1,–,2300,520,1600,2300,2500,–,–,–,–
CCn1c(C(=O)Oc2ccc(CCO)cc2)ccc1C(CC)(CC)c1ccc(OCC(O)C(C)(C)C)c(C)c1 (configuration not stated),–,6300,> 50000,> 50000,> 50000,22700,–,–,–,–
CCn1c(C(=O)N[C@@H](C)CO)ccc1C(CC)(CC)c1ccc(OCC(O)C(C)(C)C)c(C)c1 (some centres not stated),–,17500,2800,> 50000,47600,17300,–,Non-toxic,–,–
